These compounds were tested against T1, human TGR5 (Homo sapiens, UniProt Q8TDU6) (assay: cAMP production assay in HEK293 cells stably expressing TGR5 (LANCE TR-FRET)). Conditions: 30 minutes stimulation, read-out: cAMP Production in 293-TGR5 Cells EC50.
T1 construct: expressed in transfected cells
T1 sequence (Q8TDU6 1-330): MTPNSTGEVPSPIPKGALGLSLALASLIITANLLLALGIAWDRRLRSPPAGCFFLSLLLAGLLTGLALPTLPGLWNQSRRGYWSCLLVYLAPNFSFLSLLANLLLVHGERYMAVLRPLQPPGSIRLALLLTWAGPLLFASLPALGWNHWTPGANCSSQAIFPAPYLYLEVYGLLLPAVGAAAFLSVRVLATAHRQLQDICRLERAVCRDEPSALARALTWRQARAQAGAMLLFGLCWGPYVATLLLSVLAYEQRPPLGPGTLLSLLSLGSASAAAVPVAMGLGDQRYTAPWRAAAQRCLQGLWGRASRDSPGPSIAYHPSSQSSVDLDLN
Assay type: cell-based
Procedure: HEK293 cells stably expressing TGR5 (HEK293-TGR5) were established by stably transfecting HEK-293 cells with an expression vector (pcDNA 3.1, Invetrogen) inserted with human TGR5 cDNA using Fugene6 (Roche, Indianapolis, Ind.) according to conventional methods. Cells were grown in DMEM (invitrogen, Carlsbad, Calif.) supplemented with 10% FBS, 1% penicillin/streptomycin under geneticin selection. The presence of TGR5 transcripts in these cells was confirmed using branched DNA (bDNA, Genospectra, Inc., Fremont Calif.) following the manufacturer's protocol and using specific probes for human TGR5. cAMP production assay was performed in high throughput 1536 well format using LANCE cAMP detection kit (Perkin Elmer Inc., Boston, Mass.) according to the manufacturer's protocol. Briefly, HEK293-TGR5 cells were harvested using non-enzymatic cell dissociation buffer (Invitrogen, Carlsbad, Calif.) and suspended in DMEM supplemented with 0.1% FBS at a density of 800,000 cells/ml. Alexa antibody was added to the cell suspension, and 4 ul of the mixture was dispensed in white opaque tissue culture treated Greiner 1536 well plates (USA Scientific, Inc., Ocala, Fla.). After an overnight incubation at 37 C in an atmosphere of 10% CO2 and 95% humidity, 1 ul of 5 mM IBMX (Sigma, St. Louis, Mo.) solution in DMEM was dispensed for a final concentration of 1 mM. Cells were then stimulated with test compounds for 30 minutes, after which time 5 ul of detection reagent was added and incubated for 1-7 hrs at room temperature. TR-FRET signal was detected using the Viewlux (Perkin Elmer Inc., Boston Mass.). EC50 values were determined using Graph Pad Prizm analysis (GraphPad Software, Inc). The EC50 values for a wide range of bile acids generated from this assay were in agreement with the values published in the scientific literature. […] The symbol (+) denotes an EC50 value of ≦10 μM while the symbol (−) denotes an EC50 value of >10 μM (see Table 1).

SMILES	EC50 [µM]
Cc1ccc2c(=O)n(NCc3ccc(F)cc3F)c(-c3ccccc3F)nc2c1 [Example 25, 3-(2,4-difluorobenzylamino)-2-(2-fluorophenyl)-7-methylquinazolin-4(3H)-one]	≤ 10
O=c1c2ccccc2nc(-c2cccc(Cl)c2)n1NCc1ccc(Br)cc1 [Example 46, 3-(4-bromobenzylamino)-2-(3-chlorophenyl)quinazolin-4(3H)-one]	≤ 10
O=c1c2ccccc2nc(-c2ccccc2F)n1NCc1ccc(OC(F)(F)F)cc1 [Example 23, 2-(2-fluorophenyl)-3-(4-(trifluoromethoxy)benzylamino)quinazolin-4(3H)-one]	≤ 10
CC(C)(C)c1ccc(CNn2c(-c3ccccc3F)nc3ccccc3c2=O)cc1 [Example 11, 3-(4-tert-butylbenzylamino)-2-(2-fluorophenyl)quinazolin-4(3H)-one]	> 10
COc1ccccc1-c1nc2ccccc2c(=O)n1NCc1ccc(Br)cc1 [Example 19, 3-(4-bromobenzylamino)-2-(2-methoxyphenyl)quinazolin-4(3H)-one]	> 10
O=c1c2ccccc2nc(-c2ccccc2F)n1NCc1ccc(C(F)(F)F)c(F)c1 [Example 21, 3-(3-fluoro-4-(trifluoromethyl)benzylamino)-2-(2-fluorophenyl)quinazolin-4(3H)-one]	≤ 10
O=c1c2ccccc2nc(-c2ccccc2F)n1NCc1ccc(F)c(F)c1 [Example 14, 3-(3,4-difluorobenzylamino)-2-(2-fluorophenyl)quinazolin-4(3H)-one]	≤ 10
O=c1c2ccccc2nc(-c2ccc(Cl)cc2)n1NCc1ccc(Cl)cc1 [Example 51, 3-(4-chlorobenzylamino)-2-(4-chlorophenyl)quinazolin-4(3H)-one]	≤ 10
O=c1c2ccccc2nc(-c2ccccc2F)n1NCc1ccc(Cl)cc1Cl [Example 4, 3-(2,4-dichlorobenzylamino)-2-(2-fluorophenyl)quinazolin-4(3H)-one]	≤ 10
O=c1c2ccc(C(F)(F)F)cc2nc(-c2ccccc2F)n1NCc1ccc(Cl)cc1 [Example 30, 3-(4-chlorobenzylamino)-2-(2-fluorophenyl)-7-(trifluoromethyl)quinazolin-4(3H)-one]	> 10
COc1ccc2c(=O)n(NCc3ccc(F)cc3F)c(-c3ccc(F)cc3)nc2c1 [Example 34, 3-(2,4-difluorobenzylamino)-2-(4-fluorophenyl)-7-methoxy quinazolin-4(3H)-one]	> 10
O=c1c2ccccc2nc(-c2ccccc2F)n1NCc1cccc(Cl)c1 [Example 18, 3-(3-chlorobenzylamino)-2-(2-fluorophenyl)quinazolin-4(3H)-one]	≤ 10
O=c1c2ccccc2nc(-c2cccc(Cl)c2)n1NCc1ccc(F)c(F)c1 [Example 50, 2-(3-chlorophenyl)-3-(3,4-difluorobenzylamino)quinazolin-4(3H)-one]	≤ 10
O=c1c2ccccc2nc(-c2ccco2)n1NCc1ccc(Br)cc1 [Example 40, 3-(4-bromobenzylamino)-2-(furan-2-yl)quinazolin-4(3H)-one]	≤ 10
Cc1ccccc1-c1nc2ccccc2c(=O)n1NCc1ccc(Br)cc1 [Example 15, 3-(4-bromobenzylamino)-2-o-tolylquinazolin-4(3H)-one]	≤ 10
COc1ccc2c(=O)n(NCc3ccc(Br)cc3)c(-c3ccc(F)cc3)nc2c1 [Example 33, 3-(4-bromobenzylamino)-2-(4-fluorophenyl)-7-methoxyquinazolin-4(3H)-one]	> 10

Further lines, results first:

EC50 [µM]	SMILES
≤ 10	CN(Cc1ccc(Br)cc1)n1c(-c2ccc(F)cc2)nc2ccccc2c1=O [Example 90, 3-((4-bromobenzyl)(methyl)amino)-2-(4-fluorophenyl)quinazolin-4(3H)-one]
≤ 10	O=c1c2ccccc2nc(-c2ccc(F)cc2)n1NCc1cc(C(F)(F)F)cc(C(F)(F)F)c1 [Example 91, 3-(3,5-bis(trifluoromethyl)benzylamino)-2-(4-fluorophenyl)quinazolin-4(3H)-one]
≤ 10	COc1cccc(-c2nc3ccccc3c(=O)n2NCc2ccc(Cl)cc2)c1 [Example 56, 3-(4-chlorobenzylamino)-2-(3-methoxyphenyl)quinazolin-4(3H)-one]
> 10	COc1cc2nc(-c3ccc(F)cc3)n(NCc3ccc(Br)cc3)c(=O)c2cc1OC [Example 83, 3-(4-bromobenzylamino)-2-(4-fluorophenyl)-6,7-dimethoxy-quinazolin-4(3H)-one]
≤ 10	O=c1c2c(F)cccc2nc(-c2ccc(F)cc2)n1NCc1ccc(Br)cc1 [Example 112]
≤ 10	O=c1c2ccccc2nc(-c2ccc(F)cc2)n1NCc1ccc(C(F)(F)F)cc1 [Example 78, 2-(4-fluorophenyl)-3-(4-(trifluoromethyl)benzylamino)quinazolin-4(3H)-one]
≤ 10	O=c1c2ccccc2nc(-c2cccc(F)c2)n1NCc1ccc(Br)cc1 [Example 105, 3-(4-bromobenzylamino)-2-(3-fluorophenyl)quinazolin-4(3H)-one]
≤ 10	O=c1c2cc(F)ccc2nc(-c2cccc(F)c2)n1NCc1ccccc1 [Example 103, 3-(benzylamino)-6-fluoro-2-(3-fluorophenyl)quinazolin-4(3H)-one]
≤ 10	O=c1c2ccccc2nc(-c2ccc3c(c2)OCO3)n1NCc1ccc(Cl)cc1 [Example 64, 2-(benzo[d][1,3]dioxol-5-yl)-3-(4-chlorobenzylamino)quinazolin-4(3H)-one]
≤ 10	COc1ccc(-c2nc3ccccc3c(=O)n2NCc2ccc(Br)cc2)cn1 [Example 116, 3-(4-bromobenzylamino)-2-(6-methoxypyridin-3-yl)quinazolin-4(3H)— one]
≤ 10	O=c1c2ccccc2nc(-c2ccc(F)c(F)c2)n1NCc1ccc(Br)cc1 [Example 92, 3-(4-bromobenzylamino)-2-(3,4-difluorophenyl)quinazolin-4(3H)-one]
≤ 10	CCN(Cc1ccc(Br)cc1)n1c(-c2ccc(F)cc2)nc2ccccc2c1=O [Example 93, 3-((4-bromobenzyl)(ethyl)amino)-2-(4-fluorophenyl)quinazolin-4(3H)-one]
≤ 10	O=c1c2ccccc2nc(-c2ccsc2)n1NCc1ccc(Br)cc1 [Example 89, 3-(4-bromobenzylamino)-2-(thiophen-3-yl)quinazolin-4(3H)-one]
≤ 10	O=c1c2ccccc2nc(-c2cccc(OC(F)(F)F)c2)n1NCc1ccc(Cl)cc1 [Example 61, 3-(4-chlorobenzylamino)-2-(3-(trifluoromethoxy)phenyl)quinazolin-4(3H)-one]
≤ 10	Cc1cccc2c(=O)n(NCc3ccc(Cl)cc3)c(-c3ccc(F)cc3)nc12 [Example 71, 3-(4-chlorobenzylamino)-2-(4-fluorophenyl)-8-methylquinazolin-4(3H)-one]
> 10	COc1ccc(-c2nc3ccccc3c(=O)n2NCc2ccc(Cl)cc2)cc1OC [Example 62, 3-(4-chlorobenzylamino)-2-(3,4-dimethoxyphenyl)quinazolin-4(3H)-one]
≤ 10	COc1cc(-c2nc3ccccc3c(=O)n2NCc2ccc(Cl)cc2)ccc1C [Example 66, 3-(4-chlorobenzylamino)-2-(3-methoxy-4-methylphenyl)quinazolin-4(3H)-one]
≤ 10	COc1cccc(-c2nc3ccccc3c(=O)n2NCc2ccc(Br)cc2)c1 [Example 55, 3-(4-bromobenzylamino)-2-(3-methoxyphenyl)quinazolin-4(3H)-one]
≤ 10	O=c1c2ccccc2nc(-c2ccccc2)n1NCc1ccc(Br)cc1 [Example 104, 3-(4-bromobenzylamino)-2-phenylquinazolin-4(3H)-one]
≤ 10	COc1cc(-c2nc3ccccc3c(=O)n2NCc2ccc(C(F)(F)F)cc2)ccc1C [Example 68, 2-(3-methoxy-4-methylphenyl)-3-(4-(trifluoromethyl)benzylamino)quinazolin-4(3H)-one]
≤ 10	COc1cc(-c2nc3ccccc3c(=O)n2NCc2ccc(Br)cc2)ccc1Cl [Example 74, 3-(4-Bromo-benzylamino)-2-(4-chloro-3-methoxy-phenyl)-3H-quinazolin-4-one]
≤ 10	COc1cc(-c2nc3ccccc3c(=O)n2NCc2ccc(F)cc2)ccc1C [Example 67, 3-(4-fluorobenzylamino)-2-(3-methoxy-4-methylphenyl)quinazolin-4(3H)-one]

Source: US20090035306A1 (KALYPSYS, INC., priority 2006, published 2009)
